Measured values published in patent publication US10443062B2, “Genes that improve tolerance to lignocellulosic toxins when overexpressed in yeast” (Wisconsin Alumni Research Foundation, priority 2016, dated 2019).
Read-outs that look alike come from different tables or passages of the source.

System: NCYC361 and other strains
Conditions: for doubling time: YPD supplemented with 100 mg/L of iron sulfate vs YPD
Experimental: Shown are the average and standard deviation of the doubling times measured for each strain in YPD and in YPD supplemented with 100 mg/L of iron sulfate. […] Data represent three biological replicates.

## O.O.O.O.O.O.O.O=S(=O)([O-])[O-].[Fe+2] [iron sulfate, iron (II) sulfate heptahydrate]
NCYC361
  growth with iron supplementation to YPD: partially alleviated the slow growth
NCYC361, p<0.0008
  doubling time: faster
Any other strain
  doubling time: not significantly different
